According to US12433892B2, “Compositions and methods of treatment for neurological disorders comprising depression” (Gliapharm SA, priority 2018, dated 2025):
pEC50: −log10 of the molar value. Counter-ions that a name gives are not always drawn.

Experiments:
astrocytes [1] = assay: Extracellular lactate quantification; format: cell-based, mouse; parameters: Score_LACTATE / Score Lact.: scale not given here; conditions: Appendix II; for pEC50: Mus musculus, Astrocyte, lactate secretion
Procedure: Primary cultures of cerebrocortical astrocytes were obtained from 1-2-day-old OF1 mouse pups (Charles River Laboratories). Briefly, cortices were isolated and minced in small pieces under a dissecting microscope. The cells were incubated for 30 min at 37° C. in a solution containing 20 U/ml of papain enzyme (Worthington Biochemical), L-cysteine 1 mM (Sigma), and 10 kU/ml DNase I (Worthington Biochemical) for an enzymatic dissociation. Papain activity was stopped by the addition of fetal calf serum (FCS) to the solution, and a single-cell suspension was then obtained by mechanical dissociation, which consisted in cells trituration in a DMEM (D7777, Sigma-Aldrich) medium (supplemented with 44 mm NaHCO3, and 10 ml/L antibiotic/antimycotic solution) containing 10% FCS. The cells were seeded at an average density of 6×10^4 cells/cm^2 in poly-D-lysine-coated 96, 12 or 6-well culture plates, depending on their use, and incubated at 37° C. in a humidified atmosphere containing 5% CO2/95% air. Culture medium was renewed twice per week. Cells were stimulated and harvested between DIV14 and DIV17, when confluence and cell growth were optimal.
Secretion of L-lactate was determined in the extracellular medium of 96-well plated astrocytes after 90 min stimulation (at 37° C., in 5% CO2/95% air conditions) with the drug of interest. The stimulation medium was composed of D5030 medium (completed with D-glucose 5 mM and 44 mM sodium bicarbonate) for 90 min in concentrations ranging from 0 to 100 μM.
Briefly, 200 μl of a Glycine (Sigma)-Semicarbazide (Acros) 0.2M pH 10 buffer containing 3 mM NAD (Roche) and LDH 14 U/ml (Roche) was added to each well of a 96-well plate containing 30 μl aliquots complemented with 20 μl fresh complete D5030 medium. Samples were incubated at 37° C. for 1 h. After samples cooled down at room temperature, the fluorescence intensity (340 nm excitation/450 nm emission) that represents the amount of NADH produced was measured, and lactate concentration values were determined from a standard curve of L-lactate.
(§1) Statistical analysis consisted in ANOVA followed by Fisher LSD post-hoc test for pair-wise comparisons.
Levels of lactate secreted by astrocytes were measured in the extracellular medium at 90 min after stimulation with hits (molecules) from the CDC54K library.

astrocytes [2] = assay: Intracellular glycogen quantification; format: cell-based, mouse; conditions: Prestwick hits; 10 uM, 3 h
Procedure: For glycogen dosage, a protein dosage was first performed in order to assess whether harvested astrocytes from primary cell cultures yielded enough and equivalent amounts of proteins comparing each replicate, and to ensure that the obtained differences in glycogen quantities were due to drug action and not to inner protein quantities.
Astrocytes used for these dosages were previously grown in 6-well plates for 17 days and stimulated with Vehicle (DMSO) or drug of interest (1 μM to 100 μM) for 180 min, at 37° C. 5% CO2/95% air in D5030 complete medium. Medium was removed and replaced with 600 μl of 30 mM Tris HCl, and stored at −20° C.
Proteins were dosed using the micro BCA Protein Assay kit (Thermo Scientific), as described in the manufacturer's instructions. Briefly, thawed cells were sonicated and 5 μl aliquots were placed in a transparent 96-well plate, to which we added 25 μl 30 mM Tris HCl, 70 μl H2O and 100 μl of a BCA mix (made as described in manufacturer's guidelines). After a 120 min-incubation at 37° C., absorbance was measured with Safire 2 spectrophotometer at a wavelength of 562 nm, and protein quantities were determined from a standard curve of Bovine Serum Albumin (BSA).
Glycogen was quantified using a 250 μl-aliquot of the same stimulated, thawed, and sonicated cells. After an incubation period of 30 min at 90° C. and 400 rpm, 28 μl of an acetic acid/sodium acetate (both from Sigma) 0.1M pH 4.6 buffer was added to each aliquot, which was then separated in two. Each split aliquot received whether 5 μl of amyloglucosidase (Roche) or 5 μl H2O, and all cell solutions were incubated for 120 min in a shaking 37° C.-waterbath. After a centrifugation at 16'000 G for 5 min, 20 μl of supernatant were placed 96-well plate, to which 150 μl of a mix containing 0.67 mM ATP (Roche), 0.67 mM NADP (Roche), 1.8% hexokinase/glucose-6-phosphate dehydrogenase (Roche) and 0.1M Tris Buffer-HCl/3.3 mM magnesium (Fluka)/pH 8.1 buffer was added. Fluorescence was measured with Safire 2 spectrophotometer (340 nm excitation/440 nm emission). Glycogen concentration was obtained by subtracting glucose value of samples with amyloglucosidase to samples without amyloglucosidase, and were expressed relative to the amount of proteins previously determined.
Levels of intracellular glycogen in astrocytes were measured at 3 h after stimulation with 20 hits from the Prestwick library (10 μM each), as shown in FIG. 2. n=6-10; Ctrl pos. is glutamate (0.5 mM). Statistical analysis consisted in ANOVA followed by Fisher LSD post-hoc test for pair-wise comparisons.
as §1

SMILES | Score Lact. (astrocytes [1]) | pEC50 (astrocytes [1]) | Glycogen (statistical significance of glycogen degradation) (astrocytes [2])
O=S(=O)(Nc1ccc(F)cc1)c1ccc(F)c(Cl)c1 [T6947848] | 0.98 | 5.26 | 
Cc1sc2nc(CSc3nc4ccccc4[nH]3)nc(N)c2c1C [T5719257] | 0.74 |  | 
FC(F)(F)c1cccc(CNc2ncnc3[nH]ncc23)c1 [F5285-0069] | 0.36 |  | 
CCCCOc1cc(C(=O)NCCN(CC)CC)c2ccccc2n1 [Dibucaine] |  |  | * (*p<0.05)
O=c1[nH]nc(NCCOc2ccc(Br)cc2)n1C1CC1 [T533260] | 0.53 | 5.16 | 
CCc1ccccc1NC(=O)CN(C)c1ncnc2c1oc1ccccc12 [T5712071] | 0.8 |  | 
CCC(C)NS(=O)(=O)c1ccc(Oc2ccc(C)cc2)cc1 (stereo not drawn) [T5400234] | 0.33 |  | 
CC(COc1ccccc1)NC(C)C(O)c1ccc(O)cc1 (stereo not drawn) [Isoxsuprine hydrochloride] |  |  | ** (**p<0.01)
COc1cccc(C(CNc2nc(C(F)(F)F)nc3ccccc23)N(C)C)c1 (stereo not drawn) [T5800607] | 063 |  | 
COc1ccc(C(C)NC(=O)c2cc(=O)c3ccccc3o2)cc1F (stereo not drawn) [T5710343] | 0.67 |  | 
CCOc1ccc(C2(O)C(C)[N+]3=C(CCC3)N2c2ccc(OC)cc2)cc1.[Br-] (stereo not drawn) [T0500-6629] | 0.61 |  | 
COc1ccccc1NC(=O)CO/N=C(/N)c1cccc(C(F)(F)F)c1 [T5770640] | 0.55 |  | 
Cc1ccc(-c2c[nH]c(NC(=O)c3ccncc3)n2)cc1[N+](=O)O [T5694329] | 0.47 | 5.80 | 
CC[N+](CC)(CC(=O)Nc1c(C)cccc1C)Cc1ccccc1 [Denatonium benzoate] |  |  | ** (**p<0.01)
CCNc1cc(C)nc(Nc2ccc(NC(=O)Cc3ccccc3)cc2)c1 [G869-0064] | 0.54 | 5.37 | 
COc1cc(C)c(NC(=O)Cc2ccc(Cl)c(Cl)c2)cc1OC [T5783794] | 0.44 |  | 
Cc1c(C)c2c(c(C)c1O)CCC(C)(COc1ccc(CC3SC(=O)NC3=O)cc1)O2 (stereo not drawn) [Troglitazone] |  |  | *** (***p<0.001)
CCc1ccc(NS(=O)(=O)c2c(C)c(-c3nnc(C4CC4)o3)n(C)c2C)cc1 [M950-1515] | 0.67 |  | 
CC(C)[N+](C)(CCOC(=O)C1c2ccccc2Oc2ccccc21)C(C)C [Propantheline bromide] |  |  | **** (****p<0.0001)
CCCC(=O)Nc1nc(-c2ccc3c(c2)CCO3)cs1 [T5691896] | 0.38 |  | 
CC(C)S(=O)(=O)c1ccc(NS(=O)(=O)c2ccc(Cl)cc2)cc1 [T5311200] | 0.56 | 5.22 | 
N#Cc1ccc(S(=O)(=O)Nc2ccccc2C(=O)NCc2ccccc2)cc1 [T5673322] | 0.63 |  | 

SMILES | Score Lact. (astrocytes [1]) | pEC50 (astrocytes [1]) | Glycogen (statistical significance of glycogen degradation) (astrocytes [2])
O=C(Nc1ccc(F)c(F)c1)c1ccc(Cl)c(S(=O)(=O)N2CCCC2)c1 [T5450239] | 0.67 |  | 
Cc1cccc(NS(=O)(=O)c2ccc(Cl)c(Cl)c2)c1 [F3394-1364] | 0.33 | 5.23 | 
CCn1c(=O)c(C)nc2cc(C(=O)N(Cc3ccc(F)cc3)C3CC3)ccc21 [T5586091] | 0.45 |  | 
COc1ccc(NS(=O)(=O)c2ccc(N3CCCCS3(=O)=O)cc2)cc1 [G508-0015] | 0.67 |  | 
N#Cc1cc(C(=O)c2cc(F)ccc2O)cn(-c2ccc(F)c(Cl)c2)c1=O [T0516-6894] | 0.38 |  | 
Clc1ccc2c(c1)CCc1cccnc1C2=C1CCNCC1 [Desloratadine] |  |  | * (*p<0.05)
CC(C)(C)NS(=O)(=O)c1cccc(C(=O)Nc2ccncc2)c1 [T5827594] | 0.71 |  | 
CC(=O)N1CC(C)(C)c2cc(S(=O)(=O)Nc3ccc(F)cc3C)ccc21 [L302-0181] | 0.52 |  | 
c1nc(NCc2ccc3c(c2)OCO3)c2sccc2n1 [T5787526] | 0.71 |  | 
CCc1ccc(S(=O)(=O)Nc2cc3c(cc2C)n(C)c(=O)n3C)cc1 [G433-0293] | 0.74 |  | 
Cc1cc(/C=C/c2ccc3cc(N(C)C)ccc3[n+]2C)c(C)n1-c1ccccc1 [Pyrvinium pamoate] |  |  | **** (****p<0.0001)
Cn1c(=O)c(N2CCC(NC(=O)Nc3cccc(Cl)c3)CC2)nc2ccccc21 [L932-0267] | 0.53 |  | 
O=C(Nc1cccc([N+](=O)[O-])c1)c1ccc(S(=O)(=O)NCC2CCCO2)cc1 (stereo not drawn) [T6010789] | 1.31 | 5.24 | 
Cc1sc2nc(CNc3nc4ccccc4c(=O)n3C)[nH]c(=O)c2c1C [T0517-2783] | 0.46 | 5.42 | 
CCNc1cc(C)nc(Nc2ccc(NC(=O)c3cccs3)cc2)n1 [G869-0071] | 0.63 |  | 
CCN(CC)S(=O)(=O)c1ccc(S(=O)(=O)Nc2ccc(C)cc2C)cc1 [T5453923] | 0.66 | 5.27 | 
Cc1nc2ccc(NC(=O)c3ccc4c(c3)CC(C)N4S(C)(=O)=O)cc2[nH]1 (stereo not drawn) [T5606387] | 0.38 | 5.34 | 
CS(=O)(=O)NC1CCN(C(=O)c2ccc(F)cc2)C1 (stereo not drawn) [Z603-8037] | 0.32 |  | 
COc1ccc(NS(=O)(=O)c2cccc(NC(=O)c3ccccc3)c2)cc1 [T5274959] | 0.68 |  | 
CC(=O)Nc1cccc(NC(=O)CSc2nc(C)c(C)n2C2CCCC2)c1 [T5788339] | 0.75 |  | 
c1ccc(CN2CCOCC2)c(CNc2ncnc3ccsc23)c1 [T5790476] | 0.79 |  | 
COc1ccc(NS(=O)(=O)c2cccc(NC(=O)c3cccs3)c2)cc1 [T0517-4117] | 0.91 |  | 
